Laboratory results taken from PubChem BioAssay (NCI).
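A five-concentration, 48-hour dose response in 96-well plates underlies each endpoint, interpolated linearly between surrounding concentrations. Here, GI50 denotes the concentration required for 50% inhibition of growth. TGI denotes the concentration required for complete inhibition of growth.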

Key:
Assay in all cases: DTP human tumour cell line panel, 48 h
[1] = system: SN12C renal
[2] = system: OVCAR-3 ovarian
[3] = system: UO-31 renal
[4] = system: SW-620 colon
[5] = system: SR leukemia
[6] = system: KM12 colon
[7] = system: SK-MEL-5 melanoma
[8] = system: HOP-62 NSCLC
[9] = system: SF-539 CNS
[10] = system: HL-60(TB) leukemia
[11] = system: K-562 leukemia
[12] = system: UACC-257 melanoma
[13] = system: OVCAR-4 ovarian
[14] = system: SNB-75 CNS
[15] = system: NCI-H460 lung
[16] = system: COLO 205 colon
[17] = system: UACC-62 melanoma
[18] = system: CCRF-CEM leukemia
[19] = system: ACHN renal
[20] = system: MDA-MB-231 breast
[21] = system: HS 578T breast
[22] = system: MCF7 breast
[23] = system: BT-549 breast
[24] = system: CAKI-1 renal
[25] = system: IGROV1 ovarian
[26] = system: HCT-15 colon
[27] = system: A498 renal
[28] = system: HOP-92 NSCLC

COc1ccc(-c2csc(NC(=O)CSc3nc(C)c(-c4ccccc4)n3Nc3ccccc3)n2)cc1
TGI [1]: > 100 µM
GI50 [2]: 9.61 µM
TGI [2]: > 100 µM
GI50 [3]: 1.89 µM
TGI [3]: > 100 µM
GI50 [4]: 51.9 µM
TGI [4]: > 100 µM
GI50 [5]: 5.47 µM
TGI [5]: > 100 µM
GI50 [6]: 5.71 µM
TGI [6]: > 100 µM
GI50 [7]: 4.45 µM
TGI [7]: > 100 µM
GI50 [8]: 47.8 µM
TGI [8]: > 100 µM
GI50 [9]: > 100 µM
TGI [9]: > 100 µM
GI50 [10]: 6.29 µM
TGI [10]: > 100 µM
GI50 [11]: 5.29 µM
TGI [11]: > 100 µM
GI50 [12]: > 100 µM
TGI [12]: > 100 µM
GI50 [13]: 8.24 µM
TGI [13]: > 100 µM
GI50 [14]: 12.8 µM
TGI [14]: > 100 µM
GI50 [15]: 7.41 µM
TGI [15]: > 100 µM
GI50 [16]: 9.7 µM
TGI [16]: > 100 µM
GI50 [17]: 7.35 µM
TGI [17]: > 100 µM
GI50 [18]: 3.92 µM
TGI [18]: > 100 µM
GI50 [19]: > 100 µM
TGI [19]: > 100 µM
GI50 [20]: 13.3 µM
TGI [20]: > 100 µM
GI50 [21]: 6.69 µM
TGI [21]: > 100 µM
GI50 [22]: 8.25 µM
TGI [22]: > 100 µM
GI50 [23]: 8.93 µM
TGI [23]: > 100 µM
GI50 [24]: 2.5 µM
TGI [24]: > 100 µM
GI50 [25]: 4.25 µM
TGI [25]: > 100 µM
GI50 [26]: 6.9 µM
TGI [26]: > 100 µM
GI50 [27]: 31.2 µM
TGI [27]: > 100 µM
GI50 [28]: > 100 µM
TGI [28]: > 100 µM
